Structures can show the parent of a compound that is named as a salt.
Test: Stability studies of dry granulation tablet (HPLC, XRPD)
Type: physicochemical
Details: intragranular blend, milled granules, final blend of Formulation 1 (FIG. 4)

c1cn2cc(-c3ccc4cn[nH]c4c3)nc(Nc3ccc(N4CCOCC4)cc3)c2n1 [bis-mesylate salt of Formula IA]
form change by XRPD during processing: no form change
